Among the data in PubChem BioAssay AID1418 (Emory University Molecular Libraries Screening Center, 2008) are IC50 values, retold here.

Active and inactive are the calls of the source. The rule behind the calls is not given here.

Broadly, the IC50 is the midpoint of a concentration-inhibition curve.

In the assay the target is Induced myeloid leukemia cell differentiation protein Mcl-1 (Homo sapiens) (UniProt Q07820). Put plainly: blockers of Bid binding to Mcl-1 – biochemical, TR-FRET, dose response (AID 1418). The conditions noted are these: Mcl-1/Bid peptide binding, TR-FRET (europium/Dy647), 2 hr. In general terms: TR-FRET usually uses a lanthanide donor and a delayed reading to cut background.
Chain of Induced myeloid leukemia cell differentiation protein Mcl-1 (Homo sapiens) (Q07820 whole entry, looked up): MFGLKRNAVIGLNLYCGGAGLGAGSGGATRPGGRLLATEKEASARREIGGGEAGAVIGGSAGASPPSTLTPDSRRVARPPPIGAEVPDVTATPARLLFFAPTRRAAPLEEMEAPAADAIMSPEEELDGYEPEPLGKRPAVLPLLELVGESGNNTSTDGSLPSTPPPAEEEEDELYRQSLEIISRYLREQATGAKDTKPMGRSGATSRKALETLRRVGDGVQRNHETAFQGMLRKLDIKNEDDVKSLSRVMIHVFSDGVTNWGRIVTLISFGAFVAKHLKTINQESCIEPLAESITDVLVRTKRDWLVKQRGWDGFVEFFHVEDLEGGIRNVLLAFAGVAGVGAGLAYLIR
Regarding `COc1ccc(C)cc1S(=O)(=O)N(C)CC(=O)NCc1ccco1`, the IC50 was > 54 µM (inactive).
For the molecule `COc1cc2cc3c(N)c(C(=O)Nc4sc(C)c(C)c4C#N)sc3nc2cc1OC`, the IC50 is 0.97 µM.
Consider `O=C(NC(=S)NCc1cccnc1)c1ccc([N+](=O)[O-])cc1`, for which the IC50 was > 54 µM (inactive).
The figure for `O=C1c2cccc3cc([N+](=O)[O-])cc(c23)C(=O)N1/N=C/c1ccc(O)cc1O` is 0.82 µM.
Turning to `COc1ccc2c(c1)c(=O)oc1cc3oc(C)c(C)c3cc12`, the IC50 was 17 µM.
With `CCC(CC)C(=O)Oc1c(Sc2ccccc2[N+](=O)[O-])c(C)nn1C(C)(C)C` the figure was > 54 µM (inactive); with `CCOC(=O)c1c(C)oc2c1c(C(c1cccnc1)N1CCOCC1)c(O)c1ccccc12` (configuration not stated), 0.85 µM; with `O=C(NC(=S)Nc1ccc2c(c1)OCCO2)c1ccccc1F`, > 54 µM (inactive).
For the molecule `Cc1ccccc1NC(=O)c1c(C)[nH]c(=S)c(C#N)c1-c1ccc(Cl)cc1`, the IC50 is > 54 µM (inactive).
Regarding `Nc1nc(Nc2cccc(F)c2)nc(N2CCOCC2)c1[N+](=O)[O-]`, the IC50 was > 54 µM (inactive).
As to `O=C(CN1CCN(CCN2C(=O)c3cccc4cccc(c34)C2=O)CC1)c1ccc(F)cc1`, the IC50 is > 54 µM (inactive).
With `O=c1c(O)cccc2cc(O)c(O)c(O)c12` the figure was 0.92 µM.
For `O=C(c1cnn2c(C(F)(F)F)cc(-c3cccs3)nc12)N1CCOCC1`, the IC50 was > 54 µM (inactive).
As to `COc1ccc2[nH]c3c(=O)n(Cc4ccco4)cnc3c2c1`, the IC50 was > 54 µM (inactive).
Turning to `COc1ccc(-c2nc(-n3c(C)c(C(C)=O)c(C(C)=O)c3C)sc2C)cc1`, the IC50 is > 54 µM (inactive).
The figure for `CC1=NOC(=O)/C1=C\c1ccc(-c2ccc(Cl)cc2Cl)o1` is 1.94 µM.
As for `COc1ccc(C2c3c(C)nn(-c4ccccc4)c3NC(=O)N2c2ccccc2)cc1` (configuration not stated), the IC50 is > 54 µM (inactive).
Take `COc1cc(/C=N/Nc2nnc3c(n2)[nH]c2ccccc23)ccc1O`: the half-maximal inhibitory concentration (IC50) is 2.66 µM.
The figure for `O=C1/C(=C/C=C/c2ccco2)SC(=S)N1NS(=O)(=O)c1ccccc1` is 2.31 µM; for `COc1ccccc1NC(=O)c1cn(C)c(=O)c2cc(OC)c(OC)cc12` it is > 54 µM (inactive).
Consider `O=C(N=Nc1c(O)[nH]c2ccc(Br)cc12)c1cc(-c2cccs2)nc2ccccc12`, for which the concentration for half-maximal inhibition (IC50) was 0.54 µM.
For `Cc1ccc(NC(=O)Cn2c(O)c(N=NC(=O)c3cc4ccccc4cc3O)c3ccccc32)cc1`, the IC50 is 6.65 µM.
With `O=C(COc1ccccc1)N1CCN(Cc2c[nH]c3ccccc23)CC1` the figure was > 54 µM (inactive).
Turning to `Cn1nc(-c2ccc(Cl)cc2)c2cc(C(=O)NCCN3CCOCC3)sc21`, the IC50 was > 54 µM (inactive).
As to `C#CCOCCOCCOCCNc1nc(N2CCN(C(=O)[C@H](CCCCN)n3cc(C(N)CC(C)C)nn3)CC2)nc(N2CCN(C(=O)[C@H](CCC(=O)O)n3cc(C(N)[C@H](C)CC)nn3)CC2)n1` (some centres not stated), the IC50 was 22.2 µM.
On to `Cc1cccc(C(=O)N2CCc3cc(-c4nc(NC(=O)Cn5nnc6ccccc6c5=O)sc4C)ccc32)c1`, for which the IC50 was > 54 µM (inactive).
As for `Oc1cc2c(cc1C(c1ccc(Cl)c(Cl)c1)N1CCCC1)OCO2` (configuration not stated), the IC50 is 0.59 µM.
Consider `CCN1C(=O)c2cccc3c(NC(=O)C4CCCCC4)ccc1c23`, for which the IC50 was > 54 µM (inactive).
With `N#Cc1ccc(CO/N=C/c2ccccc2)cc1`, the IC50 was > 54 µM (inactive).
Turning to `Cc1cccc(-n2c(SCC(=O)Nc3nnc(C)s3)nnc2-c2ccoc2C)c1`, the IC50 is > 54 µM (inactive).
As for `O=C(COC(=O)c1cc[n+]([O-])cc1)Nc1ccccc1Cl`, the IC50 is > 54 µM (inactive).
As to `COc1ccc(-c2cc3nc4ccccc4n3c(N)c2C#N)cc1`, the half-maximal inhibitory concentration (IC50) is 2.76 µM.
Take `O=C1C(=Cc2cccn2-c2ccccc2)C(=O)c2ccccc21`: the 50% inhibitory concentration (IC50) was 2.58 µM.
With `COc1ccc(CCNC(=O)c2ccc(Cl)cc2Cl)cc1OC`, the IC50 is > 54 µM (inactive).
In the case of `O=C(CCCN1C(=O)c2ccccc2C1=O)NCCCn1ccnc1`, the IC50 is > 54 µM (inactive).
For the molecule `CCOc1ccc(-c2ccc(/C=C3/C(=N)N4C(C)=CSC4=NC3=O)o2)c([N+](=O)[O-])c1`, the IC50 was 0.83 µM.
The figure for `COc1ccc(-c2ccc(/C=C3/C(=N)N4C=CSC4=NC3=O)o2)c([N+](=O)[O-])c1` is 1.46 µM; for `Cc1ccc(N=Nc2c(N)[nH]n3c(=O)cc(-c4ccccc4)nc23)cc1` it is “inactive”.
Regarding `C#CCOCCOCCOCCNc1nc(N2CCN(C(=O)[C@H](CCCCN)n3cc(C(N)[C@H](C)CC)nn3)CC2)nc(N2CCN(C(=O)[C@H](CCC(=O)O)n3cc(C(N)[C@H](C)CC)nn3)CC2)n1` (some centres not stated), the half-inhibitory concentration (IC50) is 1.93 µM.
With `COc1ccc(C(=O)Nc2cccc(-c3cc4ccccc4oc3=O)c2)cc1[N+](=O)[O-]`, the concentration for half-maximal inhibition (IC50) was 1.24 µM.
With `CS(=O)(=O)NCc1ccc(C(=O)NCCOc2ccccc2)cc1`, the IC50 was > 54 µM (inactive).
Take `O=C(CSc1nc(-c2ccccc2)cc(C(F)(F)F)n1)N1CCOCC1`: the IC50 was > 54 µM (inactive).
In the case of `CCN(CC)C(=O)CN(C)S(=O)(=O)c1cccc2nsnc12`, the IC50 was > 54 µM (inactive).
The figure for `O=C(COC(=O)c1ccc2ccccc2c1)NCCCc1ccccc1` is > 54 µM (inactive); for `Cc1ccc(S(=O)(=O)/N=S(\C)C(C)C)cc1` (configuration not stated) it is > 54 µM (inactive).
Regarding `Cc1ccc(OCc2ccc(C(=O)Nc3nc4ccccc4n3Cc3ccccc3)o2)c([N+](=O)[O-])c1`, the IC50 was > 54 µM (inactive).
As for `O=[N+]([O-])c1ccc(-c2cn(-c3ccc(Cl)cc3)c(=S)[nH]2)cc1`, the IC50 was > 54 µM (inactive).
In the case of `Cc1c(NC(=S)NC(NC(=O)C(C)C)C(Cl)(Cl)Cl)c(=O)n(-c2ccccc2)n1C` (configuration not stated), the IC50 was > 54 µM (inactive).
With `CC(=O)N(/N=C/c1cccc(C)c1)c1nc(-c2ccc(Br)cc2)cs1`, the IC50 was > 54 µM (inactive).
With `Cc1cc(C)n(Cc2cccc(F)c2)c(=O)c1C#N` the figure was > 54 µM (inactive); with `O=C(Cn1[nH]c(=O)c2ccccc2c1=O)OCC(=O)N1CCc2ccccc2C1`, > 54 µM (inactive).
For the molecule `CC1CCCN(C(=S)Nc2ccc3nc4n(c(=O)c3c2)CCCCC4)C1` (configuration not stated), the IC50 was > 54 µM (inactive).
For the molecule `CN(C)c1ccnc2sc(C(N)=O)c(N)c12`, the IC50 was > 54 µM (inactive).
Take `C=CCOc1c(OC)cc(/C=N/Nc2cccc(C(=O)O)c2)c(Br)c1Br`: the IC50 is 18.3 µM.
On to `Nc1ccc(C(=O)N/N=C\c2cc(N=Nc3cccc4ccccc34)ccc2O)cc1`, for which the IC50 was 12 µM.
As to `O=C(CN1C(=O)/C(=C2\SC(=S)N(C3CCS(=O)(=O)C3)C2=O)c2ccccc21)Nc1ccccc1` (configuration not stated), the IC50 was 0.73 µM.
Consider `O=C(CSc1nc(-c2ccccc2)nc2c1Cc1ccccc1O2)Nc1ccc(C(=O)O)cc1`, for which the IC50 is 3.03 µM.
With `c1ccc2[nH]c(CN3CCOCC3)nc2c1` the figure was > 54 µM (inactive); with `Cc1c([N+](=O)[O-])c(C(=O)Nc2ccc3c(c2)OCCO3)nn1C`, > 54 µM (inactive).
For the molecule `COc1cccc2c1nc(C)c1cc(C)oc12`, the IC50 was > 54 µM (inactive).
Consider `CC(C(=O)O)n1nc2ccccc2n1` (configuration not stated), for which the IC50 was > 54 µM (inactive).
`COc1ccc(CN2CCN(c3ccccc3F)CC2)cc1O`: the IC50 was > 54 µM (inactive).
In the case of `O=C(C[n+]1cc(-c2ccccc2)n2c1CCC2)N1c2ccccc2Sc2ccccc21`, the IC50 is > 54 µM (inactive).
The figure for `Cc1ccc(S(=O)(=O)N2CN3CCN(C3)C2)cc1` is > 54 µM (inactive); for `Cc1csc(NC(=O)C2CCN(S(=O)(=O)c3cccs3)CC2)n1` it is > 54 µM (inactive); for `O=c1cc(-c2ccccc2Cl)oc2c(NS(=O)(=O)c3cc(Cl)cc(Cl)c3O)ccc(O)c12` it is 7.73 µM.
Regarding `Cc1ccc2nc(NC(=O)c3ccc(-c4nc5ccccc5s4)s3)sc2c1`, the half-inhibitory concentration (IC50) is 1.12 µM.
For `O=S(=O)(c1ccc(NC(=S)NCc2cccnc2)cc1)N1CCCCC1`, the IC50 was > 54 µM (inactive).
With `CCNC(=O)c1cc(S(=O)(=O)N(C)C)c(Cl)cc1Cl` the figure was > 54 µM (inactive).
Turning to `COC(=O)c1ccc(=O)c2nc3/c(=C/O)c(O)cc(=O)c3[nH]c12`, the IC50 is 3.23 µM.
With `O=C1CSC(=S)N1/N=C/c1ccc(O)c(O)c1O`, the IC50 is 1.17 µM.
For `CN1CCCCC1c1ccc(-c2cccnc2)nc1` (configuration not stated), the IC50 result was “inactive”.
With `CCn1c(-c2cccc(Br)c2)n[nH]c1=S` the figure was > 54 µM (inactive); with `O=c1n(S(=O)(=O)c2cccc3cccnc23)c2ccccc2n1S(=O)(=O)c1cccc2cccnc12`, > 54 µM (inactive); with `CCOC(=O)c1c(C)oc2c1c(C(c1ccncc1)N1CCOCC1)c(O)c1ccccc12` (configuration not stated), 0.87 µM.
Take `COC(=O)c1ccc(-c2nc3cc(Cl)c(N)cc3s2)cc1`: the IC50 was > 54 µM (inactive).
With `COC(=O)C(Cc1csc2ccc(Cl)cc12)NC(=O)c1ccc(Cl)cc1` (configuration not stated) the figure was > 54 µM (inactive); with `Cc1cc(N)n(-c2ccc3ccccc3c2)n1`, > 54 µM (inactive).
As to `CCOc1cc(C=C2C(=O)c3ccccc3C2=O)ccc1OCC(=O)Nc1ccc(C)cc1`, the IC50 is 1.2 µM.
For `CC(C)N(C(=O)c1sc2cc([N+](=O)[O-])ccc2c1Cl)C(C)C`, the IC50 was > 54 µM (inactive).
For `CC(=O)Cc1nsc(NC(=O)c2ccc(-c3cc(C(F)(F)F)ccc3Cl)o2)n1`, the IC50 is > 54 µM (inactive).
Take `O=C(O)[C@H](Cc1ccccc1)N1Cc2ccccc2C1=O`: the IC50 was 22.3 µM.
Turning to `Cc1cccc(N=C2NC(=O)/C(=C/C=C/c3ccco3)S2)c1C`, the IC50 is > 54 µM (inactive).
On to `CCOc1ccccc1Nc1nc(-c2sc(NC(=O)c3ccc([N+](=O)[O-])cc3)nc2C)cs1`, for which the IC50 is 1.37 µM.
On to `COCCCNCC(=O)Nc1sc(C)c(C)c1C(=O)OC`, for which the IC50 is > 54 µM (inactive).
In the case of `CC1=C(C#N)C(=O)NC(=O)/C1=C\c1ccc(-c2cc(C)c(C)cc2[N+](=O)[O-])o1`, the 50% inhibitory concentration (IC50) was 1.16 µM.
The figure for `CSc1nc(SCCO)c2sc3nc(-c4ccco4)c4c(c3c2n1)CC(C)(C)OC4` is 7.5 µM.
